Assay results taken from article PMC8566089 (Bioorganic Chemistry, 2021).
Read-outs that look alike come from different tables or passages of the source.

Columns and labels:
[1] = tested on: HCT116 (colon cancer cell line); assay: Annexin V-FITC apoptosis/necrosis study; assay type: cell-based; conditions: at MTT-IC50 of the agent
[2] = target: T1, COX-1 (Ovis aries, UniProt P05979); assay: COX-1 inhibitor screening kit; assay type: biochemical
T1 sequence (P05979 25-600): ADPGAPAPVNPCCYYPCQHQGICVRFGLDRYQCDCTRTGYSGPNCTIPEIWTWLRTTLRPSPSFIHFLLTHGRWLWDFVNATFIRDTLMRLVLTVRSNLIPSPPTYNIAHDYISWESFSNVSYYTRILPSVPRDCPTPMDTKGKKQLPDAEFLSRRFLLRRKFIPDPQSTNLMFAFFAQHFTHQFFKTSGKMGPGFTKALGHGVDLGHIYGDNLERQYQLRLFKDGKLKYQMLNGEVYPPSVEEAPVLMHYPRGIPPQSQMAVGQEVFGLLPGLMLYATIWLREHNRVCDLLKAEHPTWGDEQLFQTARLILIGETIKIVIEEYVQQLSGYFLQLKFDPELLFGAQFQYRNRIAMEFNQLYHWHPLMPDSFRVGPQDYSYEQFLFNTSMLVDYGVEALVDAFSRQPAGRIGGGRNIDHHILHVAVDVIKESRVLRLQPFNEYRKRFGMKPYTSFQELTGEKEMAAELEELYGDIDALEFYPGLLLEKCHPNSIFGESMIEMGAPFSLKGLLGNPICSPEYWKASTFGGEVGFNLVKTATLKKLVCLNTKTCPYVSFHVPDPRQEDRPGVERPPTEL

[3] = target: T2, VEGFR-2 (Homo sapiens, UniProt P35968); assay: VEGFR-2 Western blot in MCF7; assay type: cell-based; conditions: for VEGFR2 MCF7 % Inhibition: Western blot at MTT-IC50; for VEGFR2 MCF7 RQ (relative quantification): Western blot at MTT-IC50, control RQ 3.725
T2 sequence (P35968 20-1356): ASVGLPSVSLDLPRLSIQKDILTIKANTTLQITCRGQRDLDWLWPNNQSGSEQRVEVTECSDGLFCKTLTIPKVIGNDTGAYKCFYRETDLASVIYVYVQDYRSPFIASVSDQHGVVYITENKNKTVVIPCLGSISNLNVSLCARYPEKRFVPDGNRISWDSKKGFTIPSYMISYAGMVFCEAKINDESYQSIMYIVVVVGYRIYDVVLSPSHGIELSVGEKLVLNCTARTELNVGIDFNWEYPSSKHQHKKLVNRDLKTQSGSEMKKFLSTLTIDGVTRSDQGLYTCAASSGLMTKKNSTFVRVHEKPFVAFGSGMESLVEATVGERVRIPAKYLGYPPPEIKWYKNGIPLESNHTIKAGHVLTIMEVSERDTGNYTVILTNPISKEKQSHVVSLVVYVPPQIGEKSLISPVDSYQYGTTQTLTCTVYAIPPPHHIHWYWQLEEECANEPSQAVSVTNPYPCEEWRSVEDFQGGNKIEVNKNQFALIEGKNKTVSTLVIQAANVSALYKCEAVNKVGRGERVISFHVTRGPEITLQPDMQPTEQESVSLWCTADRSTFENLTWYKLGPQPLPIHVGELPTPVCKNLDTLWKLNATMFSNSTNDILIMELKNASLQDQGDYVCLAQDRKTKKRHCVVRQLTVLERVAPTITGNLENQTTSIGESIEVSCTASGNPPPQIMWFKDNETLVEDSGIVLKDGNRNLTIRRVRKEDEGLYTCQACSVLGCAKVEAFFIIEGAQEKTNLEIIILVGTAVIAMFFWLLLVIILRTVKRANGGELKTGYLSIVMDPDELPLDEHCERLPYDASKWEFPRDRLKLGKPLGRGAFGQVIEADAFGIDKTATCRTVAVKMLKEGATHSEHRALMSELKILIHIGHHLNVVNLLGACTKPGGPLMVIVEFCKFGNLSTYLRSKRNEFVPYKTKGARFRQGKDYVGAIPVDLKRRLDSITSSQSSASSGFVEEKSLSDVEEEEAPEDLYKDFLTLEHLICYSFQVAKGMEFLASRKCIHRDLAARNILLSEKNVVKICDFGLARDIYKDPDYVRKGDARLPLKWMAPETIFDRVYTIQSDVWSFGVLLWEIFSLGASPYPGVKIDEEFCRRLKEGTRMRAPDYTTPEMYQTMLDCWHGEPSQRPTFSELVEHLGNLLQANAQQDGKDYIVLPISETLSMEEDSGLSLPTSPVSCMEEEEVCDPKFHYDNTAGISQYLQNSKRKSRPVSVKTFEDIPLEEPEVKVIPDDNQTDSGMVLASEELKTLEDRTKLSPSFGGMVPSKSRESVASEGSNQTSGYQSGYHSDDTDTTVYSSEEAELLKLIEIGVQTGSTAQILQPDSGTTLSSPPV

[4] = tested on: HCT116 (colon cancer cell line); assay: PI-flow cytometry cell cycle analysis; assay type: cell-based; conditions: for phase of cell cycle arrest: PI-flow cytometry; for DNA content (%) G0-G1 / DNA content (%) G2/M / DNA content (%) Pre-G1 / DNA content (%) S: at MTT-IC50 of the agent
[5] = target: T3, COX-2 (Homo sapiens, UniProt P35354); assay: COX-2 inhibitor screening kit; assay type: biochemical
T3 sequence (P35354 18-604): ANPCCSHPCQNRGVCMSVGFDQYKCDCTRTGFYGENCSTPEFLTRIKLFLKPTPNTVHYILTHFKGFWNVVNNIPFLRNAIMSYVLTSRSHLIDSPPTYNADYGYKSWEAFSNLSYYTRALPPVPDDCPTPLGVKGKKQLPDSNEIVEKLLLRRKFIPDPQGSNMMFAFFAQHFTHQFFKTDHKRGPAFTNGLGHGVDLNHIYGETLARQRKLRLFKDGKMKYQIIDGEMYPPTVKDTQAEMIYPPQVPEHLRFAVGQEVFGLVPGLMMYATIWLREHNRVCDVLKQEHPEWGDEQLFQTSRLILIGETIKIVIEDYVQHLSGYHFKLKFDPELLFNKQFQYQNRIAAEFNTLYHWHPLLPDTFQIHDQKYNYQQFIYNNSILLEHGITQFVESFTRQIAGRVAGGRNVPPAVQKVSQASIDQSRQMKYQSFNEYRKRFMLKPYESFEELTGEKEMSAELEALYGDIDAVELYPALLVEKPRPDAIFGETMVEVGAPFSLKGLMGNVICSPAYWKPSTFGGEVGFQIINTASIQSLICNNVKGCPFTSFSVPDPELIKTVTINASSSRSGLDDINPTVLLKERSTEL

[6] = target: T2, VEGFR-2; assay: VEGFR-2 Western blot in HCT116; assay type: cell-based; conditions: for VEGFR2 HCT116 % Inhibition: Western blot at MTT-IC50; for VEGFR2 HCT116 RQ (relative quantification): Western blot at MTT-IC50, control RQ 3.817
[7] = tested on: RPE1 (normal human immortalized retinal pigment epithelial cell line); assay: MTT assay against normal RPE1 cells; assay type: cell-based; conditions: RPE-1, read-out: IC50 ± SE, RPE1
[8] = tested on: HCT116 (colon) cancer cell line; assay: MTT antiproliferative assay, HCT116; assay type: cell-based; conditions: for IC50: Homo sapiens, HCT-116, 72 h, read-out: IC50 ± SE, HCT116; for SI (selectivity index), HCT116: IC50 of RPE1 relative to that of HCT116
[9] = tested on: SARS-CoV-2 (hCoV-19/Egypt/NRC-03/2020); conditions: SARS-CoV-2 / VERO-E6
[10] = tested on: MCF7 (breast) cancer cell line; assay: MTT antiproliferative assay, MCF7; assay type: cell-based; conditions: for IC50: Homo sapiens, MCF7, 72 h, read-out: IC50 ± SE, MCF7; for SI (selectivity index), MCF7: IC50 of RPE1 relative to that of MCF7
[11] = tested on: A431 (squamous skin) cancer cell line; assay: MTT antiproliferative assay, A431; assay type: cell-based; conditions: for IC50: Homo sapiens, A-431, 72 h, read-out: IC50 ± SE, A431; for SI (selectivity index), A431: IC50 of RPE1 relative to that of A431
[12] = target: T4, EGFR (Homo sapiens, UniProt P00533); assay: EGFR Western blot in HCT116; assay type: cell-based; conditions: for EGFR HCT116 % Inhibition: Western blot at MTT-IC50; for EGFR HCT116 RQ (relative quantification): Western blot at MTT-IC50, control RQ 4.0382
T4 sequence (P00533 25-1210): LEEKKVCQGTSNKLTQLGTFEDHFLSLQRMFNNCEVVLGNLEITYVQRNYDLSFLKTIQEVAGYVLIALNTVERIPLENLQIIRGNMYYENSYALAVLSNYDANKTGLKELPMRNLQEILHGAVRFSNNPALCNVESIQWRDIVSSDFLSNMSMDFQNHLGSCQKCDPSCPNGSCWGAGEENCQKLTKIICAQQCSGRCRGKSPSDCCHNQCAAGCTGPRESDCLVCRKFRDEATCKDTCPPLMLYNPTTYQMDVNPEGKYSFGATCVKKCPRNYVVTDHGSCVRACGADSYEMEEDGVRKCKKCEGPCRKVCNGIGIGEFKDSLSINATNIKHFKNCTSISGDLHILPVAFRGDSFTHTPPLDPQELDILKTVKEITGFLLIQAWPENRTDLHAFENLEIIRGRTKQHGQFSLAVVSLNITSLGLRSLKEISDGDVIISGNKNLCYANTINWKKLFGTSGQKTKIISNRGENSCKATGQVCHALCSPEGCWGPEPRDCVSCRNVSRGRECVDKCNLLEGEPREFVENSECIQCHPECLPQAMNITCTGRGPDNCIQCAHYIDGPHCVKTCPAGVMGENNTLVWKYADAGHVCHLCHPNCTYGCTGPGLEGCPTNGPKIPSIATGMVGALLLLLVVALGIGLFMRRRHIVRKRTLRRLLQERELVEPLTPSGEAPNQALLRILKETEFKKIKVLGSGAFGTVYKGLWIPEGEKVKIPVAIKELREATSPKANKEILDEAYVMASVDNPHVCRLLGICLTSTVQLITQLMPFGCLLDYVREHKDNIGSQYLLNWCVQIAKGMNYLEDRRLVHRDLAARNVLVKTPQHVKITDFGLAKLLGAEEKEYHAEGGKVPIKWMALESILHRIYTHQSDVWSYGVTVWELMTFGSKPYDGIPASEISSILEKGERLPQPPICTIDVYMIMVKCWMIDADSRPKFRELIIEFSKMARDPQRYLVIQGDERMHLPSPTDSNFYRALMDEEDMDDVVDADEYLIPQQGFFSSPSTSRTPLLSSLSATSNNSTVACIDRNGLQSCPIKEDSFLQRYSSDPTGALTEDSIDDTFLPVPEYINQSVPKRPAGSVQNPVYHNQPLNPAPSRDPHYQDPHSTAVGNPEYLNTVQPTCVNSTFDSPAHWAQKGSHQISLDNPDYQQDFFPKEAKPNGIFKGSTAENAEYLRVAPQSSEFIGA

[13] = target: T4, EGFR; assay: EGFR Western blot in MCF7; assay type: cell-based; conditions: for EGFR MCF7 % Inhibition: Western blot at MTT-IC50; for EGFR MCF7 RQ (relative quantification): Western blot at MTT-IC50, control RQ 4.226
[14] = tested on: HCT116 (colon) cancer cell line; conditions: read-out: IC50 ± SE, HCT116; cited from earlier work
[15] = tested on: MCF7 (breast) cancer cell line; conditions: read-out: IC50 ± SE, MCF7; cited from earlier work

| Structure (SMILES) | Apoptosis (%) Early [1] | Apoptosis (%) Total [1] | Necrosis (%) [1] | IC50 [2] | VEGFR2 MCF7 % Inhibition [3] | VEGFR2 MCF7 RQ (relative quantification) [3] | phase of cell cycle arrest [4] | DNA content (%) G0-G1 [4] | DNA content (%) G2/M [4] | DNA content (%) Pre-G1 [4] | DNA content (%) S [4] | IC50 [5] | SI = IC50(COX-1)/IC50(COX-2) [5] | VEGFR2 HCT116 % Inhibition [6] | VEGFR2 HCT116 RQ (relative quantification) [6] | IC50 [7] | IC50 [8] | SI (selectivity index), HCT116 [8] | SI = CC50/IC50 [9] | IC50 [10] | also measured |
| --- | --- | --- | --- | --- | --- | --- | --- | --- | --- | --- | --- | --- | --- | --- | --- | --- | --- | --- | --- | --- | --- |
| CC(=O)Oc1ccccc1C(=O)N1C/C(=C\c2ccc(Cl)cc2)C(=O)/C(=C/c2ccc(Cl)cc2)C1 [Compound 5c, 2-[3,5-Bis((E)-4-chlorobenzylidene)-4-oxopiperidine-1-carbonyl]phenyl acetate] | 2.29% | 44.28% | 13.41% | 271 nM | 59.5% | 1.51 | G1-phase | 55.28% | 3.59% | 44.28% | 41.13% | 2240 nM | 0.121 | 73.3% | 1.02 | 8830 ± 680 nM | 986 ± 80 nM | 8.96 | 1.7 | 2810 ± 260 nM | Apoptosis (%) Late [1]: 28.58%; SI (selectivity index), MCF7 [10]: 3.15; IC50 [11]: 1210 ± 110 nM; SI (selectivity index), A431 [11]: 7.3; EGFR HCT116 % Inhibition [12]: 62.9%; EGFR HCT116 RQ (relative quantification) [12]: 1.5; EGFR MCF7 % Inhibition [13]: 85.6%; EGFR MCF7 RQ (relative quantification) [13]: 0.61 |
| COc1cc(/C=C2\CN(C(=O)c3cc(Cl)ccc3OC(C)=O)C/C(=C\c3cc(OC)c(OC)c(OC)c3)C2=O)cc(OC)c1OC [Compound 5o, 4-Chloro-2-(4-oxo-3,5-bis((E)-3,4,5-trimethoxybenzylidene)piperidine-1-carbonyl)phenyl acetate] | 1.72% | 35.75% | 9.44% | 193 nM | 63.0% | 1.38 | S-phase | 42.75% | 4.14% | 35.75% | 53.11% | 1600 nM | 0.121 | 69.6% | 1.16 | 7020 ± 450 nM | 750 ± 60 nM | 9.36 | 34.0 | 2650 ± 220 nM | SI (selectivity index), MCF7 [10]: 2.65; IC50 [11]: 431 ± 30 nM; SI (selectivity index), A431 [11]: 16.3; EGFR HCT116 % Inhibition [12]: 68.2%; EGFR HCT116 RQ (relative quantification) [12]: 1.283; EGFR MCF7 % Inhibition [13]: 69.2%; EGFR MCF7 RQ (relative quantification) [13]: 1.3 |
| COc1cc(/C=C/C(=O)CC(=O)/C=C/c2ccc(O)c(OC)c2)ccc1O [Cur, curcumin] | – | – | – | – | – | – | – | – | – | – | – | – | – | – | – | – | – | – | – | – | IC50 [14]: 38200 ± 2360 nM; IC50 [15]: 16000 ± 2040 nM |
